The record followed here is US12581252B2, “Substituted pyrrolo[3,4-b]pyridines as PI3K-α inhibitors” (Relay Therapeutics, Inc., priority 2020, dated 2026).

Some results are limits rather than exact numbers.

Chain of H1047R PIK3CA enzyme (P42336 whole entry H1047R): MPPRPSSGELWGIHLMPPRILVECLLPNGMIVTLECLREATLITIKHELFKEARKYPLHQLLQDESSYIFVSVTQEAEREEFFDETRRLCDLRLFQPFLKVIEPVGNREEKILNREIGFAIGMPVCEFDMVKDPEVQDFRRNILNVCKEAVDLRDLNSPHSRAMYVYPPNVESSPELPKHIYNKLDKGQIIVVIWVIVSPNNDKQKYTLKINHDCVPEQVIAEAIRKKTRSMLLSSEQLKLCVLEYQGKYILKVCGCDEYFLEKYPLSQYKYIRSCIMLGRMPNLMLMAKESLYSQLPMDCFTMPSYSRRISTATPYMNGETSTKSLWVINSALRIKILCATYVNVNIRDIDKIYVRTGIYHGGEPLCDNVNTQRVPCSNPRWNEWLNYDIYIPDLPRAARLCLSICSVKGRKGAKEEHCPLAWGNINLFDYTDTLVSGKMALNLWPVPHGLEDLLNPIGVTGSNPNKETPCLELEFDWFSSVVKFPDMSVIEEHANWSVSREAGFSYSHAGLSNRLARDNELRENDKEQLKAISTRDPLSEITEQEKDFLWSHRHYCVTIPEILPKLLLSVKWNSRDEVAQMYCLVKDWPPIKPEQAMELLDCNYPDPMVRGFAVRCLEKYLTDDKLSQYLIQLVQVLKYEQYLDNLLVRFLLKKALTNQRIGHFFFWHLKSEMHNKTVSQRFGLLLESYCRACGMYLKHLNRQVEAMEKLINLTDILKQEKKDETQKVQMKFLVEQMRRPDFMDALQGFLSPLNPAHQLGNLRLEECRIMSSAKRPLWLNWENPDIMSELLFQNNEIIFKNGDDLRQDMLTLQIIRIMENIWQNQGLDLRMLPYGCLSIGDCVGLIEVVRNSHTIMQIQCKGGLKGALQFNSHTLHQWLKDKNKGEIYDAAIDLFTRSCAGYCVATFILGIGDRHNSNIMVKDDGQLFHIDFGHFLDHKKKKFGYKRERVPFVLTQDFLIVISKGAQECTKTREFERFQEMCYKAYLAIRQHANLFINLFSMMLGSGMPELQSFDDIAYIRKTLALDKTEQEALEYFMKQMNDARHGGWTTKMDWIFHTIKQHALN
Chain of H1047R PIK3CA enzyme (P27986 whole entry partner): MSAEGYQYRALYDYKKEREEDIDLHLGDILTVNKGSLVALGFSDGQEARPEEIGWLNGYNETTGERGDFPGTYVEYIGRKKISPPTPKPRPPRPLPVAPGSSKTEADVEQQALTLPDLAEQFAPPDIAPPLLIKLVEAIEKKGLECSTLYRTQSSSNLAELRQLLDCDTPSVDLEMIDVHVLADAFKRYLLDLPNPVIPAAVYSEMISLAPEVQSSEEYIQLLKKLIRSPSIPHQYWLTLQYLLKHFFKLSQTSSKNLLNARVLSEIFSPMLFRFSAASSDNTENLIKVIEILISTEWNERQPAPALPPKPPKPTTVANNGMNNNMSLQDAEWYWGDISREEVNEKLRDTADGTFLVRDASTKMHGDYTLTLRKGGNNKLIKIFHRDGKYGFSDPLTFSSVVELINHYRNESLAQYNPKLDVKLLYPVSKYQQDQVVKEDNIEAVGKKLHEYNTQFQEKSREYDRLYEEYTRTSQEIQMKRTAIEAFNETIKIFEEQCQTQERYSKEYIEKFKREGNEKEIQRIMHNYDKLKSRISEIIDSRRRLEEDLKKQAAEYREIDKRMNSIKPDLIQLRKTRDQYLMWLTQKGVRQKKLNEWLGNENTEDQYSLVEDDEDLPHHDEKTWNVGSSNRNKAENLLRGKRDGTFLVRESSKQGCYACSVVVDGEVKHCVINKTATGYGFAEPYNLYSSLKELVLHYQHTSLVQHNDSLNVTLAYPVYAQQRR

The test has as its target H1047R PIK3CA enzyme (Homo sapiens, UniProt P42336, H1047R). The test can be described thus: ADP-Glo Biochemical PIK3CA Kinase Assay.
`O=C(Nc1cccc2c1[C@H](c1cc(F)ccc1C(F)F)NC2=O)c1cc(F)cc(C(F)(F)F)c1` [Compound I-170]: the IC50 is not above 100 nM.
Regarding `N#Cc1cc2ncnn2cc1-c1cc(NC(=O)c2cc(F)cc(C(F)(F)F)c2)c2c(c1)C(=O)NC2c1cc(F)ccc1Cl` (centres unmarked) [Compound I-1539], the IC50 was not above 100 nM.
As for `O=C(Nc1cccc2c1C([C@H]1CCCC[C@@H]1O)NC2=O)c1cc(F)cc(C(F)(F)F)c1` (single isomer, unassigned) [Compound I-1972], the figure is 10000 to 100000 nM; as for `O=C1NC(c2cc(F)ccc2Cl)c2c(NC(=O)C3CCC(O)(C(F)(F)F)CC3)cccc21` (centres unmarked) [Compound I-2155], 10000 to 100000 nM; as for `Cn1cc(C(=O)Nc2cc(NC(=O)c3cc(F)cc(C(F)(F)F)c3)c3c(c2)C(=O)NC3c2cc(F)ccc2Cl)cn1` (centres unmarked) [Compound I-336], not above 100 nM.
Turning to `O=C(Nc1cc(-c2cnc3ncc(Cl)n3c2)cc2c1[C@@H](c1cc(F)ccc1Cl)NC2=O)c1cc(F)cc(C(F)(F)F)c1` [Compound I-1984], the IC50 lay in the range of 500 to 1000 nM.
The molecule `Cn1c(Cl)cc(C(=O)Nc2cc(Br)cc3c2[C@H](c2cc(F)ccc2Cl)NC3=O)cc1=O` [Compound I-2095] yielded an IC50 of 10000 to 100000 nM.
The value for `Cc1ccccc1C1NC(=O)c2cccc(NC(=O)c3nnc4ccc(Cl)cn34)c21` (centres unmarked) [Compound I-400] was 10000 to 100000 nM.
`O=C(Nc1cc(-c2ccc3ncnn3c2)cc2c1C(c1cc(F)ccc1Cl)NC2=O)c1nc2ccccc2s1` (centres unmarked) [Compound I-1631] came in with an IC50 of 1000 to 10000 nM.
The value for `O=C(Nc1cc(-c2cn3ncnc3cc2F)cc2c1[C@H](c1cc(F)ccc1Cl)NC2=O)c1cc(F)cc(C(F)(F)F)c1` (stereo in doubt) [Compound I-1702] was not above 100 nM.
As for `O=C(Nc1cc(-c2cc(F)n3ncnc3c2)cc2c1[C@@H](c1cc(F)ccc1Cl)NC2=O)c1cc(F)cc(C(F)(F)F)c1` [Compound I-1926], the figure is 1000 to 10000 nM.
As for `O=C1NC(c2cc(F)ccc2Cl)c2c(NC3CCNCC3)cc(-c3ccc4ncnn4c3)cc21` (centres unmarked) [Compound I-2024], the figure is 10000 to 100000 nM; as for `Cn1cc(-c2cc(NC(=O)c3cc(F)cc(Cl)c3)c3c(n2)C(=O)N[C@H]3c2cc(F)ccc2Cl)cn1` [Compound I-386], not above 100 nM.
As to `O=C(Nc1cc(-c2ccncc2C(=O)O)cc2c1C(c1cc(F)ccc1Cl)NC2=O)c1cc(F)cc(C(F)(F)F)c1` (centres unmarked) [Compound I-1217], the IC50 was 100 to 500 nM.
Regarding `O=C1Cc2cccc(C3NC(=O)c4cccc(NC(=O)c5cc(F)cc(C(F)(F)F)c5)c43)c2N1` (centres unmarked) [Compound I-810], the IC50 was in the range of 10000 to 100000 nM.
As for `O=C(Nc1cc(Br)cc2c1[C@H](c1cccc(F)c1F)NC2=O)c1cc(F)cc(C(F)(F)F)c1` [Compound I-682], the figure is 100 to 500 nM; as for `CCC(CC(=O)Nc1cccc2c1C(c1cc(F)ccc1Cl)NC2=O)C(C)C(F)(F)F` (centres unmarked) [Compound I-2193], 1000 to 10000 nM; as for `O=C(Nc1cc(B(O)O)cc2c1C(c1cc(F)ccc1Cl)NC2=O)c1cc(F)cc(C(F)(F)F)c1` (centres unmarked) [Compound I-362], not above 100 nM.
As for `O=C(Nc1cc(N2CCC(F)(F)C2)nc2c1C(c1cc(F)ccc1Cl)NC2=O)c1cc(F)cc(C(F)(F)F)c1` (centres unmarked) [Compound I-357], the figure is not above 100 nM; as for `CNc1cc(NC(=O)N2C[C@](O)(C(F)(F)F)c3cc(F)ccc32)c2c(c1C#N)C(=O)N[C@H]2c1cc(F)ccc1Cl` (single isomer, unassigned) [Compound I-2608], 1000 to 10000 nM; as for `O=C(Nc1cc(C2CCCOC2)cc2c1C(c1cc(F)ccc1Cl)NC2=O)c1cc(F)cc(C(F)(F)F)c1` (centres unmarked) [Compound I-1142], not above 100 nM.
The value for `O=C(Nc1cc(N2CCCc3ncccc32)cc2c1C(c1cc(F)ccc1Cl)NC2=O)c1cc(F)cc(C(F)(F)F)c1` (centres unmarked) [Compound I-1227] was not above 100 nM.
As to `O=C1N[C@@H](c2cc(F)ccc2Cl)c2c(NC(=O)N3C[C@@](O)(C(F)F)c4cc(F)ccc43)cc(F)cc21` (single isomer, unassigned) [Compound I-2633], the IC50 lay within 1000 to 10000 nM.
The value for `O=C1NC(c2cc(F)ccc2Cl)c2c(NC(=O)[C@@H]3CC[C@H](O)C3)cc(Br)cc21` (single isomer, unassigned) [Compound I-1975] was 10000 to 100000 nM; that for `O=C(Nc1cc(N2CCOCC2)nc2c1C(c1cc(F)ccc1Cl)NC2=O)c1cc(F)cc(C(F)(F)F)c1` (centres unmarked) [Compound I-358] was not above 100 nM; that for `CN1CCCC[C@H]1[C@@H]1NC(=O)c2cccc(NC(=O)c3cc(F)cc(C(F)(F)F)c3)c21` (racemic) [Compound I-1733] was 10000 to 100000 nM.
The value for `CC(=O)N1CCC[C@H]1COc1cc(NC(=O)c2cc(F)cc(C(F)(F)F)c2)c2c(c1)C(=O)NC2c1cc(F)ccc1Cl` (single isomer, unassigned) [Compound I-1466] was not above 100 nM; that for `O=C1NC(c2cc(F)ccc2C(F)F)c2c(NC(=O)c3nsc4ccccc34)cc(Br)cc21` (centres unmarked) [Compound I-612] was not above 100 nM.
As for `Nc1nnc2ccc(-c3cc(NC(=O)c4cc(F)cc(C(F)(F)F)c4)c4c(c3)C(=O)N[C@@H]4c3cc(F)ccc3Cl)cn12` [Compound I-1448], the figure is 500 to 1000 nM; as for `Cc1ccc(C(=O)Nc2cc(-c3ccc4ncnn4c3)cc3c2[C@H](c2cc(F)ccc2Cl)NC3=O)cc1C(F)(F)F` (stereo in doubt) [Compound I-1167], not above 100 nM; as for `Cc1nccn1-c1cc(NC(=O)N2C[C@](O)(C(F)(F)F)c3cc(F)ccc32)c2c(c1)C(=O)N[C@H]2c1cc(F)ccc1Cl` (single isomer, unassigned) [Compound I-2664], 1000 to 10000 nM.
Turning to `CN1CCN(C(=O)Nc2cc(Br)cc3c2[C@@H](c2cc(F)ccc2Cl)NC3=O)CC1` (single isomer, unassigned) [Compound I-2245], the IC50 lay in the range of 10000 to 100000 nM.
As for `O=C(Nc1cc(-c2cncnc2)cc2c1[C@@H](c1cc(F)ccc1Cl)NC2=O)c1cc(F)cc(C(F)(F)F)c1` [Compound I-1094], the figure is 500 to 1000 nM.
In the case of `Cc1cc2nccnc2cc1-c1cc(NC(=O)c2cc(F)cc(C(F)(F)F)c2)c2c(c1)C(=O)NC2c1cc(F)ccc1Cl` (centres unmarked) [Compound I-975], the IC50 fell in the range of 100 to 500 nM.
As for `O=C(Nc1cccc2c1C(C1CCCOC1)NC2=O)c1cc(F)cc(C(F)(F)F)c1` (racemic) [Compound I-1958], the figure is 10000 to 100000 nM; as for `C[C@H](CCC(F)(F)F)C(=O)Nc1cccc2c1[C@@H](c1cc(F)ccc1Cl)NC2=O` [Compound I-2140], 10000 to 100000 nM; as for `O=C(Nc1cc(Br)cc2c1C(c1cc(Cl)ccc1Cl)NC2=O)c1cc(F)cc(C(F)(F)F)c1` (centres unmarked) [Compound I-763], not above 100 nM.
The value for `O=C1NC(c2cc(F)ccc2Cl)c2c(NC(=O)C34CC5CC(CC(C5)O3)C4)cccc21` (centres unmarked) [Compound I-2303] was 10000 to 100000 nM.
The value for `Nc1nc2cc(-c3cc(NC(=O)c4cc(F)cc(C(F)(F)F)c4)c4c(c3)C(=O)NC4c3cc(F)ccc3Cl)ccc2o1` (centres unmarked) [Compound I-1531] was not above 100 nM; that for `O=C1NC(c2cc(F)ccc2Cl)c2c1cccc2-c1cc2c(Cl)cc(F)cc2[nH]1` (centres unmarked) [Compound I-1317] was 100 to 500 nM.
On to `N#Cc1cnc2c(F)cc(-c3cc(NC(=O)c4cc(F)cc(C(F)(F)F)c4)c4c(c3)C(=O)N[C@@H]4c3cc(F)ccc3Cl)cn12` [Compound I-1855], for which the half-maximal inhibitory concentration (IC50) was 500 to 1000 nM.
As for `Cc1ccccc1C1NC(=O)c2cccc(NC(=O)c3nsc4ccc(C#N)cc34)c21` (centres unmarked) [Compound I-377], the figure is 1000 to 10000 nM; as for `Cc1cnccc1-c1cc(NC(=O)c2cc(F)cc(C(F)(F)F)c2)c2c(c1)C(=O)N[C@@H]2c1cc(F)ccc1Cl` (stereo in doubt) [Compound I-1011], 1000 to 10000 nM.
`O=C(Nc1cc(Br)cc2c1C(c1cc(F)ccc1Cl)NC2=O)c1ccc(C(F)(F)F)o1` (centres unmarked) [Compound I-1423] showed an IC50 of 1000 to 10000 nM.
In turn, `CSc1cc(-c2ccc3ncnn3c2)cc2c1C(c1cc(F)ccc1Cl)NC2=O` (centres unmarked) [Compound I-1892] gave an IC50 of 10000 to 100000 nM.
The value for `Cc1ccccc1C1NC(=O)c2cccc(NC(=O)N3CCc4ccc(F)cc43)c21` (centres unmarked) [Compound I-96] was 100 to 500 nM; that for `[2H]C1([2H])N(C(=O)Nc2cccc3c2[C@H](c2cc(F)ccc2Cl)NC3=O)c2ccc(F)cc2[C@@]1(O)C(F)(F)F` (single isomer, unassigned) [Compound I-2593] was 1000 to 10000 nM.
`O=C(Nc1cc(Cl)nc2c1C(c1cc(F)ccc1Cl)NC2=O)c1cc(F)cc(C(F)(F)F)c1` (centres unmarked) [Compound I-545]: the half-inhibitory concentration (IC50) is not above 100 nM.
The value for `O=C(Nc1cc(C2(O)COCC2O)cc2c1C(c1cc(F)ccc1Cl)NC2=O)c1cc(F)cc(C(F)(F)F)c1` (centres unmarked) [Compound I-1141] was 100 to 500 nM; that for `O=C(Nc1cc(-c2ccn[nH]2)cc2c1[C@@H](c1cc(F)ccc1Cl)NC2=O)c1cc(F)cc(C(F)(F)F)c1` [Compound I-866] was 1000 to 10000 nM.
As for `O=C(Nc1cccc2c1C(c1cc(F)ccc1Cl)NC2=O)c1cc(F)ccc1NC1CCC1` (centres unmarked) [Compound I-872], the figure is 1000 to 10000 nM.
The value for `O=C(Nc1cc(F)cc2c1C(c1cc(F)ccc1Cl)NC2=O)c1cc(F)cc(C(F)(F)F)c1` (centres unmarked) [Compound I-641] was not above 100 nM.
Consider `O=C1NC(c2cc(F)ccc2Cl)c2c(Nc3nsc4ccccc34)cc(Br)cc21` (centres unmarked) [Compound I-1060], for which the IC50 fell in the range of 10000 to 100000 nM.
On to `O=C(Nc1cc(-c2ccc3ncnn3c2)cc2c1[C@@H](c1cc(F)ccc1Cl)NC2=O)c1cc(Cl)cc(Cl)c1` (stereo in doubt) [Compound I-1207], for which the IC50 lay within 1000 to 10000 nM.
As for `O=C(Nc1cc(N2CC3(CCN3)C2)cc2c1C(c1cc(F)ccc1Cl)NC2=O)c1cc(F)cc(C(F)(F)F)c1` (centres unmarked) [Compound I-1388], the figure is 100 to 500 nM; as for `[2H]c1nc2ccc(-c3cc(NC(=O)c4cc(F)cc(C(F)(F)F)c4)c4c(c3)C(=O)N[C@@H]4c3cc(F)ccc3Cl)cn2n1` (stereo in doubt) [Compound I-1786], 100 to 500 nM.
Molecule `Cc1c(F)cccc1C1NC(=O)c2cccc(NC(=O)c3nsc4ccccc34)c21` (centres unmarked) [Compound I-106] returned an IC50 of 100 to 500 nM.
The value for `C[S+]([O-])c1cc(-c2ccc3ncnn3c2)cc2c1C(c1cc(F)ccc1Cl)NC2=O` (centres unmarked) [Compound I-1940] was 10000 to 100000 nM; that for `O=C(Nc1cc(C2=CCOC2)cc2c1C(c1cc(F)ccc1Cl)NC2=O)c1cc(F)cc(C(F)(F)F)c1` (centres unmarked) [Compound I-643] was not above 100 nM.

What is called IC50 is the point on the concentration scale where inhibition reaches its midpoint. A higher IC50 goes with weaker potency.
